This test concerns the target T1, hFXR (Homo sapiens, UniProt Q96RI1).
T1 construct: expressed in transfected cells; host or cells: CV-1 cells
T1 sequence (Q96RI1 1-486): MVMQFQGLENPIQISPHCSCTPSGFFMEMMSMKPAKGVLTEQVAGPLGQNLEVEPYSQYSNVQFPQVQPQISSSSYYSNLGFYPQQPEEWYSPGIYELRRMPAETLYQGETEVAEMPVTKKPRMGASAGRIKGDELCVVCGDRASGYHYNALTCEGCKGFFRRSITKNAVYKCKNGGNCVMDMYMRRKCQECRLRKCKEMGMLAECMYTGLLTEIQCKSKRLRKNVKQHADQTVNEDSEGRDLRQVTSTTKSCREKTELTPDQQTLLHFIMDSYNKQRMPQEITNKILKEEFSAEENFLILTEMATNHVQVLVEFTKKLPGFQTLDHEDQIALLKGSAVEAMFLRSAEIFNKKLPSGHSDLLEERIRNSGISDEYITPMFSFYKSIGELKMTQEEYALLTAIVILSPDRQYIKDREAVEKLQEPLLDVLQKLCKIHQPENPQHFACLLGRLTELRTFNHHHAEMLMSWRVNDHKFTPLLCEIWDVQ
T1 sequence (P19793 1-462 partner): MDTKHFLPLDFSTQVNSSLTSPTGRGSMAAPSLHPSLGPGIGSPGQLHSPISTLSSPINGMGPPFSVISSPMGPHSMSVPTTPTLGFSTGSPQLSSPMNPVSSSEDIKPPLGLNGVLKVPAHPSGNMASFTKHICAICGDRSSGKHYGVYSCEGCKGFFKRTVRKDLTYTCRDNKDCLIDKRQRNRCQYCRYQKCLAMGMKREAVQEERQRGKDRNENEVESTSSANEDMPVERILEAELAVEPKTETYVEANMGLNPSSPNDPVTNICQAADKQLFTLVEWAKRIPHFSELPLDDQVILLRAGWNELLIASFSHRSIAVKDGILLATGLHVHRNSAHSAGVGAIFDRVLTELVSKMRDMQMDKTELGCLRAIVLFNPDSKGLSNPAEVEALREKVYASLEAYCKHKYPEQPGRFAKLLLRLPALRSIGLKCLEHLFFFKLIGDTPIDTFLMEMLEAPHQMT
The test can be described thus: In Vitro FXR Assay (TK): hFXR/hRXR TK-ECRE-luc reporter in transfected CV-1 cells. The note with it: 18 hrs incubation, luminescence, compounds with maximum efficacy <25% of the Fexarmine control classified as '+'. Type of test: cell-based. As for the experimental part: Example B-1: In Vitro FXR Assay (TK)
CV-1 cells were seeded at a density of 2,000,000 cells in a T175 flask with DMEM+10% charcoal double-stripped FBS and incubated at 37° C. in 5% CO2 for 18 h (O/N).
After 18 h of incubation, the medium in the T175 flask was changed with fresh DMEM+10% charcoal super-stripped serum. In a polypropylene tube, 2500 μL OptiMEM (Life Technologies, Cat #31985-062) was combined with expression plasmids for hFXR, hRXR, TK-ECRE-luc and pCMX-YFP. The tube was then briefly vortexed and incubated at room temperature for 5 minutes. Transfection reagent (X-tremeGENE HP from Roche, Cat #06 366 236 001) was added to the OptiMEM/plasmid mixture vortexed and incubated at room temperature for 20 minutes. Following incubation, the transfection reagent/DNA mixture complex was added to cells in the T175 flask and the cells were incubated at 37° C. in 5% CO2 for 18 h (O/N).
Compounds were serially diluted in DMSO and added to transfected CV-1 cells. The cells were then incubated for 18 hrs. The next day cells were lysed and examined for luminescence.

By EC50 is commonly meant the midpoint of the concentration-response curve. A high value points to a need for much substance. As for `COc1ccc([C@H]2CC[C@H](CN(c3cccc(-c4cnc(C5CC5)s4)c3)C(=O)[C@H]3CC[C@H](O)CC3)CC2)cc1C` [Compound 7, trans-N-(3-(2-Cyclopropylthiazol-5-yl)phenyl)-4-hydroxy-N-((trans-4-(4-methoxy-3-methylphenyl)cyclohexyl)methyl) cyclohexanecarboxamide], the EC50 was not above 250 nM.
Then `COc1ncc(-c2cccc(N(C[C@H]3CC[C@@H](c4ccc(OC)c(C)c4)CC3)C(=O)[C@H]3CC[C@H](O)CC3)c2)s1` [Compound 2, trans-4-Hydroxy-N-((cis-4-(4-methoxy-3-methylphenyl)cyclohexyl)methyl)-N-(3-(2-methoxythiazol-5-yl)phenyl)cyclohexanecarboxamide], with not below 1000 nM; and `COc1ccc([C@H]2CC[C@H](CN(c3cccc(-c4cnc(C5CC5)s4)c3)C(=O)[C@H]3CC[C@H](O)CC3)CC2)nc1C#N` [Compound 9.21, trans-N-((trans-4-(6-Cyano-5-methoxypyridin-2-yl)cyclohexyl)methyl)-N-(3-(2-cyclopropylthiazol-5-yl)phenyl)-4-hydroxycyclohexanecarboxamide], with not above 250 nM.
For `COc1ccc(C23CCC(CN(c4cccc(-c5cnc(C6CC6)s5)c4)C(=O)[C@H]4CC[C@H](O)CC4)(CC2)CC3)cc1C` [Compound 10, trans-N-(3-(2-Cyclopropylthiazol-5-yl)phenyl)-4-hydroxy-N-((4-(4-methoxy-3-methylphenyl)bicyclo[2.2.2]octan-1-yl)methyl)cyclohexanecarboxamide] the value was not above 250 nM; for `COc1ncc(-c2cccc(N(C[C@H]3CC[C@H](c4ccc5scnc5c4)CC3)C(=O)[C@H]3CC[C@H](O)CC3)c2)s1` [Compound 9.09, trans-N-((trans-4-(Benzo[d]thiazol-5-yl)cyclohexyl)methyl)-4-hydroxy-N-(3-(2-methoxythiazol-5-yl)phenyl)cyclohexanecarboxamide], not above 250 nM; for `COc1ncc(-c2cccc(N(C[C@@H]3CC[C@@H](c4ccc(OC)c(C)c4)C(C)C3)C(=O)[C@H]3CC[C@H](O)CC3)c2)s1` (stereo partly drawn) [Compound 9.12, trans-4-Hydroxy-N-((trans-4-(4-methoxy-3-methylphenyl)-3-methylcyclohexyl)methyl)-N-(3-(2-methoxythiazol-5-yl)phenyl)cyclohexanecarboxamide], not above 250 nM.
`COc1ccc([C@H]2CC[C@H](CN(c3cccc(-c4cnc(C(N)=O)s4)c3)C(=O)[C@H]3CC[C@H](O)CC3)CC2)cc1C` [Compound 7.25, 5-(3-(trans-4-Hydroxy-N-((trans-4-(4-methoxy-3-methylphenyl)cyclohexyl)methyl)cyclohexanecarboxamido)phenyl)thiazole-2-carboxamide] yielded an EC50 of 250 to 1000 nM.
For `COc1ccc([C@H]2CC[C@H](CN(c3cccc(-c4cnc(OC(C)C)s4)c3)C(=O)[C@H]3CC[C@H](O)CC3)CC2)cc1C` [Compound 7.17, trans-4-Hydroxy-N-(3-(2-isopropoxythiazol-5-yl)phenyl)-N-((trans-4-(4-methoxy-3-methylphenyl)cyclohexyl)methyl) cyclohexanecarboxamide] the value was not above 250 nM.
For `COc1ccc([C@H]2CC[C@H](CN(c3cc(-c4cnc(C(C)C)s4)ccn3)C(=O)[C@H]3CC[C@H](O)CC3)CC2)cc1C` [Compound 9.28, trans-4-Hydroxy-N-(4-(2-isoporpylthiazol-5-yl)pyridin-2-yl)-N-((trans-4-(4-methoxy-3-methylphenyl)cyclohexyl)methyl) cyclohexanecarboxamide] the value was not above 250 nM; for `COc1ncc(-c2cccc(N(C[C@H]3CC[C@H](c4ccc(OC)c(C)c4)CC3)C(=O)C3CCOCC3)c2)s1` [Compound 9.30, N-((trans-4-(4-Methoxy-3-methylphenyl)cyclohexyl)methyl)-N-(3-(2-methoxythiazol-5-yl)phenyl)tetrahydro-2H-pyran-4-carboxamide], not above 250 nM; for `CCOc1ncc(-c2cccc(N(C[C@H]3CC[C@H](c4ccc(OC)c(C)c4)CC3)C(=O)[C@H]3CC[C@H](O)CC3)c2)s1` [Compound 7.16, trans-N-(3-(2-Ethoxythiazol-5-yl)phenyl)-4-hydroxy-N-((trans-4-(4-methoxy-3-methylphenyl)cyclohexyl)methyl) cyclohexanecarboxamide], not above 250 nM.
Then `COc1ccc([C@H]2CC[C@H](CN(c3cc(-c4cnc(C5CC5)s4)ccn3)C(=O)[C@H]3CC[C@H](O)CC3)CC2)cc1C#N` [Compound 9.22, trans-N-((trans-4-(3-Cyano-4-methoxyphenyl)cyclohexyl)methyl)-N-(4-(2-cyclopropylthiazol-5-yl)pyridin-2-yl)-4-hydroxycyclohexanecarboxamide], with not above 250 nM; and `Cn1ccc2cc([C@H]3CC[C@H](CN(c4cccc(-c5cnc(C6CC6)s5)c4)C(=O)[C@H]4CC[C@H](O)CC4)CC3)ncc21` [Compound 9.17, trans-N-(3-(2-Cyclopropylthiazol-5-yl)phenyl)-4-hydroyx-N-((trans-4-(1-methyl-1H-pyrrolo[2,3-c]pyridin-5-yl)cyclohexyl)methyl)cyclohexanecarboxamide], with 250 to 1000 nM.
`COc1ccc([C@H]2CC[C@H](CN(c3cccc(-c4cnc(-c5ccccc5)s4)c3)C(=O)[C@H]3CC[C@H](O)CC3)CC2)cc1C` [Compound 7.10, trans-4-Hydroxy-N-((trans-4-(4-methoxy-3-methylphenyl)cyclohexyl)methyl)-N-(3-(2-phenylthiazol-5-yl)phenyl)cyclohexanecarboxamide] yielded an EC50 not above 250 nM.
For `COc1ccc([C@H]2CC[C@H](CN(c3cccc(-c4cnc(C5CC5)s4)c3)C(=O)[C@H]3CC[C@H](O)CC3)CC2)cc1Cl` [Compound 9.03, trans-N-((trans-4-(3-Chloro-4-methoxyphenyl)cyclohexyl)methyl)-N-(3-(2-cyclopropylthiazol-5-yl)phenyl)-4-hydroxycyclohexanecarboxamide] the value was not above 250 nM; for `COc1ccc([C@H]2CC[C@H](CN(c3cccc(-c4cnc(C(F)(F)F)s4)c3)C(=O)[C@H]3CC[C@H](O)CC3)CC2)cc1C` [Compound 7.23, trans-4-Hydroxy-N-((trans-4-(4-methoxy-3-methylphenyl)cyclohexyl)methyl)-N-(3-(2-(trifluoromethyl)thiazol-5-yl)phenyl)cyclohexanecarboxamide], not above 250 nM.
Turning to `COc1ccc([C@H]2CC[C@H](CN(c3cccc(OCc4nccs4)c3)C(=O)[C@H]3CC[C@H](O)CC3)CC2)cc1C` [Compound 16, trans-4-Hydroxy-N-((trans-4-(4-methoxy-3-methylphenyl)cyclohexyl)methyl)-N-(3-(thiazol-2-ylmethoxy)phenyl)cyclohexanecarboxamide], the EC50 is not above 250 nM.
As to `Cn1nc(F)c2cc([C@H]3CC[C@H](CN(c4cccc(-c5cnc(C6CC6)s5)c4)C(=O)[C@H]4CC[C@H](O)CC4)CC3)ccc21` [Compound 9, trans-N-(3-(2-Cyclopropylthiazol-5-yl)phenyl)-N-((trans-4-(3-fluoro-1-methyl-1H-indazol-5-yl)cyclohexyl)methyl)-4-hydroxycyclohexanecarboxamide], the EC50 is not above 250 nM.
Then `COc1ccc([C@H]2CC[C@H](CN(c3cccc(-c4cnc(C(C)=O)s4)c3)C(=O)[C@H]3CC[C@H](O)CC3)CC2)cc1C` [Compound 7.24, trans-N-(3-(2-Acetylthiazol-5-yl)phenyl)-4-hydroxy-N-((trans-4-(4-methoxy-3-methylphenyl)cyclohexyl)methyl) cyclohexanecarboxamide], with 250 to 1000 nM; and `COc1ccc([C@H]2CC[C@H](CN(c3cccc(-c4cnc(C5CC5)s4)c3)C(=O)[C@H]3CC[C@H](O)CC3)CC2)cc1S(C)(=O)=O` [Compound 9.26, trans-N-(3-(2-Cyclopropylthiazol-5-yl)phenyl)-4-hydroxy-N-((trans-4-(4-methoxy-3-(methylsulfonyl)phenyl)cyclohexyl)methyl) cyclohexanecarboxamide], with not above 250 nM.

These data come from US20200131142A1, “FARNESOID X RECEPTOR AGONISTS AND USES THEREOF” (Metacrine, Inc., priority 2017, published 2020).
